{
  "source": "patent US10927101B2",
  "about": "“Neopetrosides A and B, and synthesis method thereof” (INJE UNIVERSITY INDUSTRY-ACADEMIC COOPERATION FOUNDATION, priority 2016, dated 2021)",
  "key": {"[1]": {"assay": "Solubility of NPS A in water and organic solvents", "format": "physicochemical"}, "[2]": {"system": "h9c2 cells", "assay": "MTT toxicity assay in h9c2 myocardial cells", "format": "cell-based", "settings": "24 hours treatment", "method": "In h9c2 cells, myocardial cells, the toxicity of NPS A extracted from Neopetrosia sp. Of Example 1 was confirmed.\nThe h9c2 cells were dispensed at 2×10^4 cells/well in a 96-well tissue culture plate and cultured for 16 hours. Thereafter, various concentrations of NPS A were treated and cultured for additional 24 hours.\nAfter the culture, a quantitative colorimetric assay using MTT(3-(4,5-dimethylthiazol-2-yl)-2,5-diphenyltetrazolium bromide (Sigma-Aldrich, St. Louis, Mo., USA) was performed to confirm the survival rate of the cells.\nThe degree of reduction of MTT to intracellular formazan was confirmed by measuring the optical density at 570 nm using a microplate reader (Molecular device, Sunnyvale, Calif., USA)."}, "[3]": {"system": "h9c2 cells", "assay": "Oxygen consumption rate (OCR) / ECAR measurement with XF24 analyzer", "format": "cell-based", "method": "For this, the basal oxygen consumption rate (OCR), respiratory related to ATP (adenosine triphosphate), proton leak, maximal capacity and mitochondrial OCR were confirmed.\nFirst, to measure OCR, h9c2 cells were dispensed at 2×10^4 cells/well in an XF24 cell plate (Seahorse Bioscience, Billerica, Mass., USA) and cultured for 16 hours. Thereafter, cells were dispensed with various concentrations of NPS A and cultured for another one hour. After 1 hour, the medium was replaced with 500 μL of XF assay medium-modified DMEM (XF Assay Medium-modified DMEM, Seahorse Bioscience, Billerica, Mass., USA) and incubated for 1 hour in a incubator at 37° C. in absence of CO2.\nOCR was measured using an XF24 analyzer (Seahorse Bioscience, Billerica, Mass., USA) and XF24 software. After OCR measurement, the XF 24 assay results were normalized to the cell number and the number of cells in each well was counted by a Luna™ automated cell counter (Logos, Annandale, Va., USA)."}, "[4]": {"system": "h9c2 cells", "assay": "Mitochondrial ATP level (Mitochondrial ToxGlo assay)", "format": "cell-based", "settings": "h9c2 cells, 0, 3 or 10 μM NPS A for 1 hour", "method": "Furthermore, mitochondrial ATP levels were measured using the Mitochondrial T ToxGlo™ assay (Promega, Madison, Wis., USA) according to the manufacturer's instructions.\nBriefly, h9c2 cells were dispensed at 2×10^6 cells/well in a 60 mm tissue culture plate and cultured for 16 hours and treated with 0, 3, or 10 μM NPS A for 1 hour. The treated cells were all collected and resuspended by pipetting until the cells were uniformly dispersed. The resuspended h9c2 cells were dispensed at 2×10^4 cells/well in a 96-well plate and the plates were centrifuged at 200×g for 10 minutes to remove the medium. Thereafter, 50 μL of fresh medium (except for glucose, containing 10 mM galactose) was added.\nThe cells were incubated in a humidified incubator at 37° C. supplied with CO2 for 90 minutes. Then, the assay solution (100 μL) was added to the plate and reacted at room temperature for 30 minutes. Luminescence was measured using a luminometer (Molecular Device, Sunnyvale, Calif., USA)."}, "[5]": {"system": "h9c2 cells", "assay": "Glycolysis activity, capacity and reserve with XF24 analyzer", "format": "cell-based", "settings": "10 μM NPS A compared to 20 μM or 30 μM, 1 hour", "method": "After treating h9c2 cells with NPS A, the glycolysis activity, the glycolysis capacity and the glycolysis reserve were confirmed using an XF24 analyzer.\nh9c2 cells were treated sequentially with 10 mM glucose (G), 1 μM oligomycin (O) and 10 mM 2-dioxyglucose (2DG), treated with NPS A for 1 hour and then measured with an XF24 analyzer."}, "[6]": {"system": "ischemic reperfusion heart model", "assay": "Ischemic reperfusion heart model (Langendorff perfused rat heart)", "format": "in vivo, SD rats", "method": "8-week-old male SD rats (200-250 g) were anesthetized by intraperitoneal injection of sodium pentobarbital (100 mg/kg). The chest cavity was exposed and a glass cannula was inserted into the aorta. The heart was quickly cut into thoracotomy, perfused with a normal Tyrode's solution in a Langendorff system and equilibrated with 95% O2 and 5% CO2 at 37° C. for 10 min to remove all blood. The heart of the rat was extirpated and the experiment was performed using a non-circulating system. First, ischemic reperfusion (I/R) model and drug treatment group (NPS A treatment; NPS A 10 μM treatment after ischemia reperfusion) were performed and hypoxic solution was flowed for 30 minutes. After 30 minutes, the normal tyrode solution and NPS A were treated together to restore cardiac function and confirm changes in electrocardiogram. […] After global ischemia (initiating reperfusion), 10 μM of NPS A was administered for 30 minutes."}, "[7]": {"system": "mitochondria extracted from the heart of rats", "assay": "Oxidative phosphorylation in mitochondria extracted from NPS A-treated rat heart", "settings": "mitochondria of I/R rat heart, NPS A treatment"}, "[8]": {"system": "candidate kinases of the first type (cardiovascular diseases)", "assay": "Kinase screening, set of kinases related to cardiovascular diseases", "format": "biochemical", "text": "(§1) First, kinases regulated by NPS A were screened using a set of kinases related to cardiovascular diseases and diabetes."}, "[9]": {"molecular_target": "GSK-3α (Glycogen synthase kinase-3α) (Homo sapiens, UniProt P49840)", "sequence (P49840 whole entry, species assumed)": "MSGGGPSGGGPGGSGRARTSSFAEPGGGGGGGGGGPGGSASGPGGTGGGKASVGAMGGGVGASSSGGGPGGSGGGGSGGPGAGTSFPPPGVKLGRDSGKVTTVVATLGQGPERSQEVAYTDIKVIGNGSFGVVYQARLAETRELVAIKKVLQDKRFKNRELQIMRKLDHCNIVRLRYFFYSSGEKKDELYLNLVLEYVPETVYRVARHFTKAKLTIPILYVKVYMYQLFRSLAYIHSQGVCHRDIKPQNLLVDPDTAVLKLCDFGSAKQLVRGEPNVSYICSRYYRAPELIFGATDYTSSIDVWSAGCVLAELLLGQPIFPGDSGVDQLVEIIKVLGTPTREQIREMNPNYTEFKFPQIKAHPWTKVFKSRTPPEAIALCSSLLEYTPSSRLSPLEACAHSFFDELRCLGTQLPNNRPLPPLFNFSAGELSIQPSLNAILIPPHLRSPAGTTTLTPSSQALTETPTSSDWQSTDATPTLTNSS", "assay": "Kinase screening and IC50 determination, GSK-3α", "format": "biochemical", "method": "as §1\n(§2) The activity of GSK-3 alpha, GSK-3 beta and mTOR kinase regulated by NPS A was measured to determine the half maximal inhibition dosage."}, "[10]": {"molecular_target": "GSK-3β (Homo sapiens, UniProt P49841)", "sequence (P49841 whole entry, species assumed)": "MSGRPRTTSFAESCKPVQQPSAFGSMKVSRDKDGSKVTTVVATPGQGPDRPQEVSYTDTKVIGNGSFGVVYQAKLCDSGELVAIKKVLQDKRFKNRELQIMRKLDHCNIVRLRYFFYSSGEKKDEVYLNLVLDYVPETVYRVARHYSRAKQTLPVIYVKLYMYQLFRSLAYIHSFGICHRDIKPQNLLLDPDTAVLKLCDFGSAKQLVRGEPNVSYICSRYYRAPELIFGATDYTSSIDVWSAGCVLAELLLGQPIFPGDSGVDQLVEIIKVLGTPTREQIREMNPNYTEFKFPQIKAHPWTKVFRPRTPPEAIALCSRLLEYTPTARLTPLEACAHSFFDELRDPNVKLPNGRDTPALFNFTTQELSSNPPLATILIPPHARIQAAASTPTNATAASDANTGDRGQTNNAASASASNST", "assay": "Kinase screening and IC50 determination, GSK-3β", "format": "biochemical", "method": "as §1, §2"}, "[11]": {"molecular_target": "mTOR (mammalian target of rapamycin) (Homo sapiens, UniProt P42345)", "assay": "Kinase screening and dose-dependence, mTOR", "format": "biochemical", "method": "as §1, §2"}, "[12]": {"settings": "kinase screening, kinases related with diabetes"}},
  "note": "pIC50: −log10 of the molar value. “Also recorded” adds a separate entry of the source.",
  "data": [
    {"smiles": "O=C([O-])c1ccc[n+](C2OC(COC(=O)c3ccc(O)cc3)C(O)C2O)c1", "note": "(centres unmarked) [NPS A, Neopetroside A]", "values": [
      {"measurement": "solubility in other organic solvents", "setting": "[1]; other organic solvents", "result": "not well soluble"},
      {"measurement": "solubility in pyridine and methanol", "setting": "[1]; pyridine and methanol", "result": "dissolves in pyridine and methanol"},
      {"measurement": "solubility in water", "setting": "[1]; water", "result": "dissolves in water"},
      {"measurement": "concentration up to which not toxic to the myocardial cells (MTT survival)", "setting": "[2]", "result": "≤ 300", "unit": "µM"},
      {"measurement": "OCR/ECAR ratio", "setting": "[3]", "result": "increased"},
      {"measurement": "basal ECAR (extracellular acidification rate)", "setting": "[3]", "result": "increased"},
      {"measurement": "basal OCR", "setting": "[3]; 1 hour treatment", "result": "up-regulated; also recorded: increased"},
      {"measurement": "mitochondrial OCR", "setting": "[3]; 1 hour treatment", "result": "up-regulated"},
      {"measurement": "oxidative phosphorylation", "setting": "[3]; 1 hour treatment", "result": "up-regulated"},
      {"measurement": "respiration associated with ATP", "setting": "[3]; 1 hour treatment", "result": "up-regulated"},
      {"measurement": "ATP synthesis", "setting": "[4]", "result": "stimulates; also recorded: up-regulated"},
      {"measurement": "intracellular ATP levels", "setting": "[4]", "result": "increases"},
      {"measurement": "glycolysis activity", "setting": "[5]", "result": "greatest"},
      {"measurement": "glycolysis capacity", "setting": "[5]", "result": "greatest"},
      {"measurement": "cardiac rhythm", "setting": "[6]; 10 μM NPS A during reperfusion", "result": "recovered"},
      {"measurement": "size of the heart infarction", "setting": "[6]; 10 μM NPS A during reperfusion", "result": "significantly reduced"},
      {"measurement": "left ventricular pressure (LV pressure)", "setting": "[6]; 10 μM NPS A for 30 minutes during reperfusion after 30 minutes global ischemia", "result": "effectively restored"},
      {"measurement": "respiratory control ratio (RCP)", "setting": "[7]", "result": "recovered"},
      {"measurement": "three-stage respiratory depression in mitochondria (OCR)", "setting": "[7]", "result": "significantly protected"},
      {"measurement": "regulation of candidate kinases of the first type", "setting": "[8]", "result": "did not regulate most"},
      {"measurement": "pIC50", "setting": "[9]", "result": 3.85},
      {"measurement": "kinase screening result, GSK-3α", "setting": "[9]; [12]", "result": "inhibited"},
      {"measurement": "pIC50", "setting": "[10]", "result": 3.91},
      {"measurement": "kinase screening result, GSK-3β", "setting": "[10]; [12]", "result": "inhibited"},
      {"measurement": "mTOR activity according to doses of NPS A", "setting": "[11]; different doses of NPS A", "result": "no change"},
      {"measurement": "kinase screening result, mTOR", "setting": "[11]; [12]", "result": "inhibited"}
    ]}
  ]
}
